For 24 compounds, inhibition results are on record in patent US7109193B2, “Tricyclic diazepines tocolytic oxytocin receptor antagonists” (Wyeth, priority 2001, dated 2006).

In the test the target is T1, human vasopressin V2 receptor subtype (Homo sapiens, UniProt P30518).
T1 construct: host or cells: CHO cells (pZeoSV vector)
T1 sequence (P30518 whole entry): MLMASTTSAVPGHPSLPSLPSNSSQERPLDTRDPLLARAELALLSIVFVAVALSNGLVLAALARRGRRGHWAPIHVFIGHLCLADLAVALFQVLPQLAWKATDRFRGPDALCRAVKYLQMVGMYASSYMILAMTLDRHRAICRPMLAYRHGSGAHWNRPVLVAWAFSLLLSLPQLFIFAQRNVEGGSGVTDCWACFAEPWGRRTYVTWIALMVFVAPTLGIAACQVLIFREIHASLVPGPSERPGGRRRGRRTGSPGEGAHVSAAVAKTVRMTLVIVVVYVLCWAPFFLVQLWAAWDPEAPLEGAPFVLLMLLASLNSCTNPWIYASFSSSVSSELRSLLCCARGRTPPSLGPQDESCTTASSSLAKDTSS
In words: Vasopressin binding in Chinese Hamster Ovary cell membranes expressing human vasopressin V2 subtype receptors. The settings on record: 100 nM, CHO cell membranes, [3H]arginine vasopressin, values without parentheses. A digest of the protocol: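 Radioligand displacement on membranes from CHO cells stably expressing human V2 receptor, 25 to 50 μg protein/well, in 50 mM Tris-HCl pH 7.4 with MgCl2, BSA and protease inhibitors. [^3H]arginine vasopressin (8 nM working solution) incubated 60 min at room temperature; bound label measured by filtration and scintillation counting.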
As a reminder, the inhibition is the percentage by which the read-out fell short of the control. With `COc1cccc(-c2ccc(C(=O)N3Cc4ccc(C(=O)N5CCN(C(C)C)CC5)n4Cc4ccccc43)cc2OC)c1` [Example 242, {10-[(2,3′-Dimethoxy[1,1′-biphenyl]-4-yl)carbonyl]-10,11-dihydro-5H-pyrrolo[2,1-c][1,4]benzodiazepin-3-yl}(4-isopropyl-1-piperazinyl)methanone], the inhibition at 0.1 µM was found to be 25%.

`COc1cc(-c2ccccc2C(F)(F)F)c(Cl)cc1C(=O)N1Cc2ccc(C(=O)O)n2Cc2ccccc21` [Example 15, 10-{[6-Chloro-3-methoxy-2′-trifluoromethyl-[1,1′-biphenyl]-4-yl]carbonyl}-10,11-dihydro-5H-pyrrolo[2,1-c][1,4]benzodiazepine-3-carboxylic acid]: the inhibition at 0.1 µM amounted to 27%.

With `COc1cccc(-c2cc(OC)c(C(=O)N3Cc4ccc(C(=O)N(C)C5CCN(C)CC5)n4Cc4ccccc43)cc2Cl)c1` [Example 181, 10-[(6-Chloro-3,3′-dimethoxy[1,1′-biphenyl]-4-yl)carbonyl]-N-methyl-N-(1-methyl4-piperidinyl)-10,11-dihydro-5H-pyrrolo[2,1-c][1,4]benzodiazepine-3-carboxamide], the inhibition at 0.1 µM came to 12%.

Consider `COc1cc(C(=O)N2Cc3ccc(C(=O)N4CCN(C(C)C)CC4)n3Cc3ccccc32)ccc1-c1cccc2ccccc12` [Example 236, (4-Isopropyl-1-piperazinyl){10-[3-methoxy-4-(1-naphthyl)benzoyl]-10,11-dihydro-5H -pyrrolo[2,1-c][1,4]benzodiazepin-3-yl}methanone], for which the inhibition at 0.1 µM was determined as 5%.

On to `COc1cccc(-c2cc(OC)c(C(=O)N3Cc4ccc(C(=O)NCCN5CCCCC5)n4Cc4ccccc43)cc2Cl)c1` [Example 156, 10-[(6-Chloro-3,3′-dimethoxy[1,1′-biphenyl]-4-yl)carbonyl]-N-[2-(1-piperidinyl)ethyl]-10,11-dihydro-5H-pyrrolo[2,1-c][1,4]benzodiazepine-3-carboxamide], for which the inhibition at 0.1 µM was 12%.

Regarding `Cc1cc(C(=O)N2Cc3ccc(C(=O)N4CCN(CCN5CCOCC5)CC4)n3Cc3ccccc32)ccc1-c1ccccc1C(F)(F)F` [Example 216, (10-{[2-Methyl-2′-(trifluoromethyl)[1,1′-biphenyl]-4-yl]carbonyl}-10,11-dihydro-5H -pyrrolo[2,1-c][1,4]benzodiazepin-3-yl){4-[2-(4-morpholinyl)ethyl]-1-piperazinyl}methanone], the inhibition at 0.1 µM turned out to be 0%.

Consider `C=CCN1CCN(C(=O)c2ccc3n2Cc2ccccc2N(C(=O)c2ccc(-c4ccccc4OC)c(C)c2)C3)CC1` [Example 222, (4-Allyl-1-piperazinyl){10-[(2′-methoxy-2-methyl[1,1′-biphenyl]-4-yl)carbonyl]-10,11-dihydro-5H-pyrrolo[2,1-c][1,4]benzodiazepin-3-yl}methanone], for which the inhibition at 0.1 µM is 1%.

Turning to `COc1cc(C(=O)N2Cc3ccc(C(=O)N4CCN(CCN5CCOCC5)CC4)n3Cc3ccccc32)ccc1-c1cccc2ccccc12` [Example 213, {10-[3-Methoxy-4-(1-naphthyl)benzoyl]-10,11-dihydro-5H-pyrrolo[2,1-c][1,4]benzodiazepin-3-yl}{4-[2-(4-morpholinyl)ethyl]-1-piperazinyl}methanone], the inhibition at 0.1 µM came to 33%.

Turning to `COc1cccc(-c2ccc(C(=O)N3Cc4ccc(C(=O)NCCC5CCCN5C)n4Cc4ccccc43)cc2OC)c1` (stereo not drawn) [Example 172, 10-[(2,3′-Dimethoxy[1,1′-biphenyl]-4-yl)carbonyl]-N-[2-(1-methyl-2-pyrrolidinyl)ethyl]-10,11-dihydro-5H-pyrrolo[2,1-c][1,4]benzodiazepine-3-carboxamide], the inhibition at 0.1 µM was found to be 11%.

Take `COc1ccccc1-c1ccc(C(=O)N2Cc3ccc(C(=O)NCCN4CCCCC4)n3Cc3ccccc32)cc1OC` [Example 158, 10-[(2,2′-Dimethoxy[1,1′-biphenyl]-4-yl)carbonyl]-N-[2-(1-piperidinyl)ethyl]-10,11-dihydro-5H-pyrrolo[2,1-c][1,4]benzodiazepine-3-carboxamide]: the inhibition at 0.1 µM is 19%.

On to `CN1CCCC1CCNC(=O)c1ccc2n1Cc1ccccc1N(C(=O)c1ccc(-c3cccc4ccccc34)cc1Cl)C2` (stereo not drawn) [Example 173, 10-[2-Chloro-4-(1-naphthyl)benzoyl]-N-[2-(1-methyl-2-pyrrolidinyl)ethyl]-10,11-dihydro-5H-pyrrolo[2,1-c][1,4]benzodiazepine-3-carboxamide], for which the inhibition at 0.1 µM was 17%.

For the compound `COc1cccc(-c2cc(OC)c(C(=O)N3Cc4ccc(C(=O)N5CCN(CCN(C)C)CC5)n4Cc4ccccc43)cc2Cl)c1` [Example 202, {10-[(6-Chloro-3,3′-dimethoxy[1,1′-biphenyl]-4-yl)carbonyl]-10,11-dihydro-5H-pyrrolo[2,1-c][1,4]benzodiazepin-3-yl}{4-[2-(dimethylamino)ethyl]-1-piperazinyl}methanone], the inhibition at 0.1 µM was 8%.

On to `COc1cccc(-c2cc(OC)c(C(=O)N3Cc4ccc(C(=O)NCCC5CCCN5C)n4Cc4ccccc43)cc2Cl)c1` (stereo not drawn) [Example 169, 10-[(6-Chloro-3,3′-dimethoxy[1,1′-biphenyl]-4-yl)carbonyl]-N-[2-(1-methyl-2-pyrrolidinyl)ethyl]-10,11-dihydro-5H-pyrrolo[2,1-c][1,4]benzodiazepine-3-carboxamide], for which the inhibition at 0.1 µM stood at 5%.

With `Cc1ccccc1-c1ccc(C(=O)N2Cc3ccc(C(=O)N4CCN(CCN5CCOCC5)CC4)n3Cc3ccccc32)cc1C` [Example 218, {10-[(2,2′-Dimethyl[1,1′-biphenyl]-4-yl)carbonyl]-10,11-dihydro-5H-pyrrolo[2,1-c][1,4]benzodiazepin-3-yl}{4-[2-(4-morpholinyl)ethyl]-1-piperazinyl}methanone], the inhibition at 0.1 µM amounted to 23%.

Consider `Cc1cc(C(=O)N2Cc3ccc(C(=O)NCCC4CCCN4C)n3Cc3ccccc32)ccc1-c1ccccc1C(F)(F)F` (stereo not drawn) [Example 174, N-[2-(1-Methyl-2-pyrrolidinyl)ethyl]-10-{[2-methyl-2′-(trifluoromethyl)[1,1′-biphenyl]-4-yl]carbonyl}-10,11-dihydro-5H-pyrrolo[2,1-c][1,4]benzodiazepine-3-carboxamide], for which the inhibition at 0.1 µM amounted to 7%.

Take `COc1cc(C(=O)N2Cc3ccc(C(=O)NCCC4CCCN4C)n3Cc3ccccc32)ccc1-c1ccccc1C` (stereo not drawn) [Example 167, 10-[(2-Methoxy-2′-methyl[1,1′-biphenyl]-4-yl)carbonyl]-N-[2-(1-methyl-2-pyrrolidinyl)ethyl]-10,11-dihydro-5H-pyrrolo[2,1-c][1,4]benzodiazepine-3-carboxamide]: the inhibition at 0.1 µM turned out to be 20%.

Take `COc1cccc(-c2ccc(C(=O)N3Cc4ccc(C(=O)N(C)C5CCN(C)CC5)n4Cc4ccccc43)cc2C)c1` [Example 176, 10-[(3′-Methoxy-2-methyl[1,1′-biphenyl]-4-yl)carbonyl]-N-methyl-N-(1-methyl-4-piperidinyl)-10,11-dihydro-5H-pyrrolo[2,1-c][1,4]benzodiazepine-3-carboxamide]: the inhibition at 0.1 µM came out at 18%.

As for `Cc1cc(C(=O)N2Cc3ccc(C(=O)N(C)C4CCN(C)C4)n3Cc3ccccc32)ccc1-c1ccccc1C(F)(F)F` (stereo not drawn) [Example 194, N-Methyl-N-(1-methyl-3-pyrrolidinyl)-10-{[2-methyl-2′-(trifluoromethyl)[1,1′-biphenyl]-4-yl]carbonyl}-10,11-dihydro-5H-pyrrolo[2,1-c][1,4]benzodiazepine-3-carboxamide], the inhibition at 0.1 µM was 0%.

In the case of `Cc1cc(C(=O)N2Cc3ccc(C(=O)NCCN4CCCCC4)n3Cc3ccccc32)ccc1-c1ccccc1C(F)(F)F` [Example 161, 10-{[2-Methyl-2′-(trifluoromethyl)[1,1′-biphenyl]-4-yl]carbonyl}-N-[2-(1-piperidinyl)ethyl]-10,11-dihydro-5H-pyrrolo[2,1-c][1,4]benzodiazepine-3-carboxamide], the inhibition at 0.1 µM turned out to be 4%.

Consider `O=C(c1ccc2n1Cc1ccccc1N(C(=O)c1ccc(-c3cccc4ccccc34)cc1Cl)C2)N1CCN(CCN2CCOCC2)CC1` [Example 215, {10-[2-Chloro-4-(1-naphthyl)benzoyl]-10,11-dihydro-5H-pyrrolo[2,1-c][1,4]benzodiazepin-3-yl}{4-[2-(4-morpholinyl)ethyl]-1-piperazinyl}methanone], for which the inhibition at 0.1 µM stood at 22%.

For the compound `COc1ccccc1-c1ccc(C(=O)N2Cc3ccc(C(=O)N4CCN(C(C)C)CC4)n3Cc3ccccc32)cc1` [Example 234, (4-Isopropyl-1-piperazinyl){10-[(2′-methoxy[1,1′-biphenyl]-4-yl)carbonyl]-10,11-dihydro-5H-pyrrolo[2,1-c][1,4]benzodiazepin-3-yl}methanone], the inhibition at 0.1 µM was 22%.

For `COc1cc(C(=O)N2Cc3ccc(C(=O)N4CCN(CCN(C)C)CC4)n3Cc3ccccc32)ccc1-c1ccccc1C` [Example 201, {4-[2-(Dimethylamino)ethyl]-1-piperazinyl}{10-[(2-methoxy-2′-methyl[1,1′-biphenyl]-4-yl)carbonyl]-10,11-dihydro-5H-pyrrolo[2,1-c][1,4]benzodiazepin-3-yl}methanone], the inhibition at 0.1 µM amounted to 19%.

Turning to `COc1cc(-c2ccccc2C)c(Cl)cc1C(=O)N1Cc2ccc(C(=O)N(C)C3CCN(C)CC3)n2Cc2ccccc21` [Example 180, 10-[(6-Chloro-3-methoxy-2′-methyl[1,1′-biphenyl]-4-yl)carbonyl]-N-methyl-N-(1-methyl-4-piperidinyl)-10,11-dihydro-5H-pyrrolo[2,1-c][1,4]benzodiazepine-3-carboxamide], the inhibition at 0.1 µM is 14%.

In the case of `Cc1ccccc1-c1ccc(C(=O)N2Cc3ccc(C(=O)N(C)C4CCN(C)C4)n3Cc3ccccc32)cc1` (stereo not drawn) [Example 188, N-Methyl-10-[(2′-methyl[1,1′-biphenyl]-4-yl)carbonyl]-N-(1-methyl-3-pyrrolidinyl)-10,11-dihydro-5H-pyrrolo[2,1-c][1,4]benzodiazepine-3-carboxamide], the inhibition at 0.1 µM worked out at 10%.
